Results taken from the supplement of paper PMC5908809.

Columns and labels:
[1] = system: normal NK cells expanded with K562-aAPC; experiment: drug sensitivity score (DSS) (DSS units); higher = more sensitive; extreme values may be limits of the assay; details: 72 h; IL-2 2.5 ng/mL
Method: (§1)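 Drug sensitivity and resistance testing on K562-aAPC-expanded normal NK cells: 5 concentrations (10-fold steps over a 10,000-fold range), 72 h at 37 °C, viability by CellTiter-Glo normalised to DMSO and benzethonium chloride controls; DSS from the fitted curve.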

[2] = system: NK-92 (IL-2 2.5 ng/mL); experiment: percent inhibition of viability; higher = more inhibition; details: 72 h
[3] = system: KHYG-1 (IL-2 2.5 ng/mL); experiment: as above; details: 72 h
[4] = system: normal primary NK cells, pool 3 (3 donors) (IL-2 2.5 ng/mL); experiment: as above; details: 72 h
[5] = system: NKL (IL-2 2.5 ng/mL); experiment: as above; details: 72 h
[6] = system: IMC-1 (IL-2 20 ng/mL); experiment: as above; details: 72 h
[7] = system: normal primary NK cells, pool 2 (3 donors) (IL-2 2.5 ng/mL); experiment: as above; details: 72 h
[8] = system: normal primary NK cells, pool 1 (3 donors), resting (IL-2 0 ng/mL); experiment: as above; details: 72 h
[9] = system: normal primary NK cells, pool 1 (3 donors) (IL-2 2.5 ng/mL); experiment: as above; details: 72 h
[10] = system: DERL-7 (IL-2 2.5 ng/mL); experiment: as above; details: 72 h
[11] = system: SNK-6 (IL-2 2.5 ng/mL); experiment: as above; details: 72 h
[12] = system: YT (IL-2 2.5 ng/mL); experiment: as above; details: 72 h
[13] = system: NK-YS (IL-2 2.5 ng/mL); experiment: as above; details: 72 h
[14] = system: KAI3 (IL-2 2.5 ng/mL); experiment: as above; details: 72 h
[15] = system: NK-92 (IL-2 2.5 ng/mL); experiment: drug sensitivity score (DSS) (DSS units); higher = more sensitive; extreme values may be limits of the assay; details: 72 h
[16] = system: KHYG-1 (IL-2 2.5 ng/mL); experiment: as above; details: 72 h
[17] = system: normal primary NK cells, pool 3 (3 donors) (IL-2 2.5 ng/mL); experiment: as above; details: 72 h
[18] = system: NKL (IL-2 2.5 ng/mL); experiment: as above; details: 72 h
[19] = system: IMC-1 (IL-2 20 ng/mL); experiment: as above; details: 72 h
[20] = system: normal primary NK cells, pool 2 (3 donors) (IL-2 2.5 ng/mL); experiment: as above; details: 72 h
[21] = system: normal primary NK cells, pool 1 (3 donors), resting (IL-2 0 ng/mL); experiment: as above; details: 72 h
[22] = system: normal primary NK cells, pool 1 (3 donors) (IL-2 2.5 ng/mL); experiment: as above; details: 72 h
[23] = system: DERL-7 (IL-2 2.5 ng/mL); experiment: as above; details: 72 h
[24] = system: SNK-6 (IL-2 2.5 ng/mL); experiment: as above; details: 72 h
[25] = system: YT (IL-2 2.5 ng/mL); experiment: as above; details: 72 h
[26] = system: NK-YS (IL-2 2.5 ng/mL); experiment: as above; details: 72 h
[27] = system: KAI3 (IL-2 2.5 ng/mL); experiment: as above; details: 72 h
[28] = system: normal NK cells expanded with K562-aAPC; experiment: percent inhibition of viability; higher = more inhibition; details: 72 h, IL-2 2.5 ng/mL
Method: as §1

Cc1cnc(NC(=O)Nc2cc(Br)c(C)cc2OC[C@@H]2CNCCO2)cn1 [Rabusertib] (max concentration tested 1000 nM)
drug sensitivity score [1]: 5.12 | percent inhibition of viability ([2]; 0.1 nM): -4.77% | percent inhibition of viability ([2]; 1 nM): 4.85% | percent inhibition of viability ([2]; 10 nM): 16% | percent inhibition of viability ([2]; 100 nM): 18.2% | percent inhibition of viability ([2]; 1000 nM): 86.9% | percent inhibition of viability ([3]; 0.1 nM): 3.66% | percent inhibition of viability ([3]; 1 nM): 7.68% | percent inhibition of viability ([3]; 10 nM): 5.93% | percent inhibition of viability ([3]; 100 nM): 14.9% | percent inhibition of viability ([3]; 1000 nM): 103% | percent inhibition of viability ([4]; 0.1 nM): -20.8% | percent inhibition of viability ([4]; 1 nM): -8.02% | percent inhibition of viability ([4]; 10 nM): 3.37% | percent inhibition of viability ([4]; 100 nM): -3.4% | percent inhibition of viability ([4]; 1000 nM): 8.17% | percent inhibition of viability ([5]; 0.1 nM): -16.6% | percent inhibition of viability ([5]; 1 nM): 0.3% | percent inhibition of viability ([5]; 10 nM): -1.09% | percent inhibition of viability ([5]; 100 nM): 14% | percent inhibition of viability ([5]; 1000 nM): 86.2% | percent inhibition of viability ([6]; 0.1 nM): -3.74% | percent inhibition of viability ([6]; 1 nM): -1.84% | percent inhibition of viability ([6]; 10 nM): 2.04% | percent inhibition of viability ([6]; 100 nM): 1.67% | percent inhibition of viability ([6]; 1000 nM): 9.87% | percent inhibition of viability ([7]; 0.1 nM): -8.45% | percent inhibition of viability ([7]; 1 nM): 5.23% | percent inhibition of viability ([7]; 10 nM): 3.94% | percent inhibition of viability ([7]; 100 nM): 0.79% | percent inhibition of viability ([7]; 1000 nM): 15.8% | percent inhibition of viability ([8]; 0.1 nM): 5.84% | percent inhibition of viability ([8]; 1 nM): -6.29% | percent inhibition of viability ([8]; 10 nM): 4.9% | percent inhibition of viability ([8]; 100 nM): -19.1% | percent inhibition of viability ([8]; 1000 nM): -1.65% | percent inhibition of viability ([9]; 0.1 nM): -1.58% | percent inhibition of viability ([9]; 1 nM): -1.28% | percent inhibition of viability ([9]; 10 nM): -6.24% | percent inhibition of viability ([9]; 100 nM): -18% | percent inhibition of viability ([9]; 1000 nM): -4.02% | percent inhibition of viability ([10]; 0.1 nM): 5.67% | percent inhibition of viability ([10]; 1 nM): 5.69% | percent inhibition of viability ([10]; 10 nM): 4.81% | percent inhibition of viability ([10]; 100 nM): 4.56% | percent inhibition of viability ([10]; 1000 nM): 33.5% | percent inhibition of viability ([11]; 0.1 nM): 11.6% | percent inhibition of viability ([11]; 1 nM): 6.32% | percent inhibition of viability ([11]; 10 nM): 2.12% | percent inhibition of viability ([11]; 100 nM): 11.8% | percent inhibition of viability ([11]; 1000 nM): 62.8% | percent inhibition of viability ([12]; 0.1 nM): -0.82% | percent inhibition of viability ([12]; 1 nM): -0.63% | percent inhibition of viability ([12]; 10 nM): 1.16% | percent inhibition of viability ([12]; 100 nM): -2% | percent inhibition of viability ([12]; 1000 nM): 11% | percent inhibition of viability ([13]; 0.1 nM): 1.16% | percent inhibition of viability ([13]; 1 nM): 1.34% | percent inhibition of viability ([13]; 10 nM): 0.68% | percent inhibition of viability ([13]; 100 nM): 3.22% | percent inhibition of viability ([13]; 1000 nM): 65.2% | percent inhibition of viability ([14]; 0.1 nM): -0.28% | percent inhibition of viability ([14]; 1 nM): -3.83% | percent inhibition of viability ([14]; 10 nM): 3.9% | percent inhibition of viability ([14]; 100 nM): 11.6% | percent inhibition of viability ([14]; 1000 nM): 81% | drug sensitivity score [15]: 7.67 | drug sensitivity score [16]: 8.07 | drug sensitivity score [17]: 0 | drug sensitivity score [18]: 7.11 | drug sensitivity score [19]: 0 | drug sensitivity score [20]: 0.35 | drug sensitivity score [21]: 0 | drug sensitivity score [22]: 0 | drug sensitivity score [23]: 2.31 | drug sensitivity score [24]: 5.37 | drug sensitivity score [25]: 0 | drug sensitivity score [26]: 4.02 | drug sensitivity score [27]: 6.43 | percent inhibition of viability ([28]; 0.1 nM): 4.2% | percent inhibition of viability ([28]; 1 nM): -1.61% | percent inhibition of viability ([28]; 10 nM): 0.16% | percent inhibition of viability ([28]; 100 nM): 13.5% | percent inhibition of viability ([28]; 1000 nM): 55.7%

O=C(/C=C\n1cnc(-c2cc(C(F)(F)F)cc(C(F)(F)F)c2)n1)NNc1cnccn1 [Selinexor] (max concentration tested 10000 nM)
drug sensitivity score [1]: 25.9 | percent inhibition of viability ([2]; 1 nM): -2.59% | percent inhibition of viability ([2]; 10 nM): -2.77% | percent inhibition of viability ([2]; 100 nM): 33.9% | percent inhibition of viability ([2]; 1000 nM): 90.6% | percent inhibition of viability ([2]; 10000 nM): 101% | percent inhibition of viability ([3]; 1 nM): 0.08% | percent inhibition of viability ([3]; 10 nM): 3.04% | percent inhibition of viability ([3]; 100 nM): 35.7% | percent inhibition of viability ([3]; 1000 nM): 93.3% | percent inhibition of viability ([3]; 10000 nM): 102% | percent inhibition of viability ([4]; 1 nM): -6.17% | percent inhibition of viability ([4]; 10 nM): 1.79% | percent inhibition of viability ([4]; 100 nM): 59.1% | percent inhibition of viability ([4]; 1000 nM): 88.1% | percent inhibition of viability ([4]; 10000 nM): 99.8% | percent inhibition of viability ([5]; 1 nM): -4.23% | percent inhibition of viability ([5]; 10 nM): 11% | percent inhibition of viability ([5]; 100 nM): 42.8% | percent inhibition of viability ([5]; 1000 nM): 76.3% | percent inhibition of viability ([5]; 10000 nM): 87.8% | percent inhibition of viability ([6]; 1 nM): -4.46% | percent inhibition of viability ([6]; 10 nM): 1.62% | percent inhibition of viability ([6]; 100 nM): -10.9% | percent inhibition of viability ([6]; 1000 nM): 86.9% | percent inhibition of viability ([6]; 10000 nM): 100% | percent inhibition of viability ([7]; 1 nM): -5.72% | percent inhibition of viability ([7]; 10 nM): 14.1% | percent inhibition of viability ([7]; 100 nM): 65.8% | percent inhibition of viability ([7]; 1000 nM): 89.2% | percent inhibition of viability ([7]; 10000 nM): 97.1% | percent inhibition of viability ([8]; 1 nM): -3.27% | percent inhibition of viability ([8]; 10 nM): 25.6% | percent inhibition of viability ([8]; 100 nM): 77.9% | percent inhibition of viability ([8]; 1000 nM): 87.5% | percent inhibition of viability ([8]; 10000 nM): 93.1% | percent inhibition of viability ([9]; 1 nM): 3.58% | percent inhibition of viability ([9]; 10 nM): 9.52% | percent inhibition of viability ([9]; 100 nM): 57.5% | percent inhibition of viability ([9]; 1000 nM): 87.9% | percent inhibition of viability ([9]; 10000 nM): 98.6% | percent inhibition of viability ([10]; 1 nM): -2.69% | percent inhibition of viability ([10]; 10 nM): 16.9% | percent inhibition of viability ([10]; 100 nM): 59.3% | percent inhibition of viability ([10]; 1000 nM): 89.7% | percent inhibition of viability ([10]; 10000 nM): 99.2% | percent inhibition of viability ([11]; 1 nM): -0.01% | percent inhibition of viability ([11]; 10 nM): 17.6% | percent inhibition of viability ([11]; 100 nM): 63.9% | percent inhibition of viability ([11]; 1000 nM): 81.6% | percent inhibition of viability ([11]; 10000 nM): 93.4% | percent inhibition of viability ([12]; 1 nM): 3.93% | percent inhibition of viability ([12]; 10 nM): 13.2% | percent inhibition of viability ([12]; 100 nM): 61.2% | percent inhibition of viability ([12]; 1000 nM): 91.8% | percent inhibition of viability ([12]; 10000 nM): 104% | percent inhibition of viability ([13]; 1 nM): -3.45% | percent inhibition of viability ([13]; 10 nM): 3.74% | percent inhibition of viability ([13]; 100 nM): 39% | percent inhibition of viability ([13]; 1000 nM): 77.4% | percent inhibition of viability ([13]; 10000 nM): 95.4% | percent inhibition of viability ([14]; 1 nM): -3.28% | percent inhibition of viability ([14]; 10 nM): 4.63% | percent inhibition of viability ([14]; 100 nM): 52.6% | percent inhibition of viability ([14]; 1000 nM): 93.7% | percent inhibition of viability ([14]; 10000 nM): 106% | drug sensitivity score [15]: 20.8 | drug sensitivity score [16]: 21.3 | drug sensitivity score [17]: 24.6 | drug sensitivity score [18]: 19.9 | drug sensitivity score [19]: 15.5 | drug sensitivity score [20]: 26 | drug sensitivity score [21]: 29 | drug sensitivity score [22]: 24.1 | drug sensitivity score [23]: 25 | drug sensitivity score [24]: 25.1 | drug sensitivity score [25]: 25.4 | drug sensitivity score [26]: 19.4 | drug sensitivity score [27]: 23.9 | percent inhibition of viability ([28]; 1 nM): 4.95% | percent inhibition of viability ([28]; 10 nM): 27.1% | percent inhibition of viability ([28]; 100 nM): 55.3% | percent inhibition of viability ([28]; 1000 nM): 96.5% | percent inhibition of viability ([28]; 10000 nM): 101%
